Laboratory results from patent US9440930B2, “Substituted bicyclic dihydropyrimidinones and their use as inhibitors of neutrophil elastase activity” (Boehringer Ingelheim International GmbH, priority 2014, dated 2016).

What was measured:
[1] = target: T1, Human neutrophil elastase (Homo sapiens, UniProt P08246); test: Human Neutrophil Elastase Assay; type: biochemical; details: substrate MeOSuc-Ala-Ala-Pro-Val-AMC 250 μM, pH 7.5, room temperature
T1 construct: purchased Calbiochem 324681
T1 sequence (P08246 30-247 limits assumed): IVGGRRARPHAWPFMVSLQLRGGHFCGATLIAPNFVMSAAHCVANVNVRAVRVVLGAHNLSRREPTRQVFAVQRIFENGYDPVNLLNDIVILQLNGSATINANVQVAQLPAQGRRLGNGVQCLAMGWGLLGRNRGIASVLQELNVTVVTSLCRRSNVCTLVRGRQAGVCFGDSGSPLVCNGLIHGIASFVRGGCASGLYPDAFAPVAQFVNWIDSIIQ
Description: Human Neutrophil Elastase Assay

[2] = target: T2, neutrophil elastase in human plasma (Homo sapiens, UniProt P08246); test: Neutrophil elastase inhibitory activity in human plasma; type: biochemical; details: zymosan-stimulated human plasma, substrate MeOSuc-Ala-Ala-Pro-Val-AMC 250 μM
T2 construct: The stimulated blood is centrifuged to generate the neutrophil elastase enriched plasma; from tissue; host or cells: plasma from zymosan-stimulated citrated whole blood of healthy human donors
T2 sequence (P08246 30-267): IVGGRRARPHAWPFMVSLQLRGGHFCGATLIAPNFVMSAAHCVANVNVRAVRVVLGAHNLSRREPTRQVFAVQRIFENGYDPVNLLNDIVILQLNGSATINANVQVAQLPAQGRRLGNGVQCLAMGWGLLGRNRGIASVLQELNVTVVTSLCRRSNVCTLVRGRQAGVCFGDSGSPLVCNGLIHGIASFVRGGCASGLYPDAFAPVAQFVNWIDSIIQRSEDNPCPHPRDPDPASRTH
Method: Assay for the Determination of Neutrophil Elastase Inhibitory Activity in Human Plasma
Citrated blood from human healthy donors is mixed with zymosan suspension and incubated at room temperature. This leads to the stimulation of neutrophils and the release of neutrophil elastase into the plasma. The stimulated blood is centrifuged to generate the neutrophil elastase enriched plasma.
• A single 45 ml blood sample is taken into a 50 ml tube containing citrate (3.13%, 5 mL) and the tube is gently inverted 4 times. • Immediately after blood sampling, zymosan working solution (5 mL) is added. • After the addition of zymosan working solution, the tubes are capped, mixed gently and incubated at 22° C. for 15 min on a shaker at 20 rpm. • Make 10 ml aliquots after the incubation time. • Centrifuge the 15 ml tubes at 800 g for 15 min at 4° C. in a Jouan centrifuge. • Harvest the plasma and make 1-5 ml aliquots. • Store the plasma at −80° C.
A dose response curve is generated to calculate the EC50 of the inhibitor. The analysis of the data is performed by the calculation of the percentage of fluorescence in the presence of the test compound compared to the fluorescence of the vehicle control after subtracting the background fluorescence: An inhibitor of the neutrophil elastase enzyme will give values between 100% control (no inhibition) and 0% control (complete inhibition).

[3] = Metabolic stability with human liver microsomes; type: in vitro ADME; details: pooled human liver microsomes, pH 7.6; human liver microsomes 1 mg/ml, 1 μM compound, 37° C., NADPH; read-out: t1/2 INVITRO
[4] = Drug transport across human Caco-2 cells; type: in vitro ADME; details: pH 7.2, 37° C.; for Papp A→B at 10 µM: apical-to-basal, read-out: PEAB; for Papp B→A at 10 µM: basal-to-apical, read-out: PEBA
Description: Assay for Determination of Drug Transport Across Human Caco-2 Cells
The assay provides information on the potential of a compound to pass the cell membrane, on the extent of oral absorption as well as on whether the compound is actively transported by uptake and/or efflux transporters. For the measurement of permeability across polarized, confluent human cancer colon carcinoma cells 2 (Caco-2) cell monolayers grown on permeable filter supports are used as the in vitro absorption model.
Apparent permeability coefficients (PE) of the compounds across the Caco-2 monolayers are measured (pH 7.2, 37° C.) in apical-to-basal (AB) (absorptive) and basal-to-apical (BA) (secretory) transport direction. AB permeability (PEAB) represents drug absorption from the intestine into the blood and BA permeability (PEBA) drug secretion from the blood back into the intestine via both passive permeability as well as active transport mechanisms mediated by efflux and uptake transporters that are expressed on the Caco-2 cells. The compounds are assigned to permeability/absorption classes by comparison of the AB permeabilities with the AB permeabilities of reference compounds with known in vitro permeability and oral absorption in the human. Identical or similar permeabilities in both transport directions indicate passive permeation, vectorial permeability points to additional active transport mechanisms. […] Active transport is concentration-dependently saturable.
Caco-2 cells (1-2*10^5 cells/cm^2 area) are seeded on filter inserts (Costar transwell polycarbonate or PET filters, 0.4 μm pore size) and cultured (DMEM) for 10 to 25 days. Compounds are dissolved in appropriate solvent (like DMSO, 1-20 min stock solutions). Stock solutions are diluted with HTP-4 buffer (128.13 min NaCl, 5.36 min KCl, 1 mM MgSO4, 1.8 min CaCl2, 4.17 min NaHCO3, 1.19 min Na2HPO4×7H2O, 0.41 mM NaH2PO4×H2O, 15 min HEPES, 20 min glucose, pH 7.2) to prepare the transport solutions (typically 10 μM compound, final DMSO<=0.5%). The transport solution (TL) is applied to the apical or basolateral donor side for measuring A-B or B-A permeability (3 filter replicates), respectively. The receiver side contains HTP-4 buffer supplemented with 2% BSA. Samples are collected at the start and end of experiment from the donor and at various time intervals for up to 2 hours also from the receiver side for concentration measurement by LC-MS/MS or scintillation counting. Sampled receiver volumes are replaced with fresh receiver solution.

Structure (SMILES) | IC50 [1] [nM] | other results
C[S+]([O-])c1cc(C#N)ccc1C1NC(=O)N(c2cccc(C(F)(F)F)c2)C2=C1C(=O)CCC2 (single isomer, unassigned) [Example 1.1A, 4-[2,5-Dioxo-1-(3-trifluoromethyl-phenyl)-1,2,3,4,5,6,7,8-octahydro-quinazolin-4-yl]-3-methanesulfinyl-benzonitrile] | < 1 | 
CN1C(=O)N(c2cccc(C(F)(F)F)c2)C2=C(C(=O)CCC2)C1c1ccc(C#N)cc1[S+](C)[O-] (single isomer, unassigned) [Example 2.2B, 3-Methanesulfinyl-4-[3-methyl-2,5-dioxo-1-(3-trifluoromethyl-phenyl)-1,2,3,4,5,6,7,8-octahydro-quinazolin-4-yl]-benzonitrile] | 100 | 
CN1C(=O)N(c2cccc(C(F)(F)F)c2)C2=C(C(=O)CCC2)C1c1ccc(C#N)cc1[S+](C)[O-] (single isomer, unassigned) [Example 2.1B, 3-Methanesulfinyl-4-[3-methyl-2,5-dioxo-1-(3-trifluoromethyl-phenyl)-1,2,3,4,5,6,7,8-octahydro-quinazolin-4-yl]-benzonitrile] | 134 | 
COCCS(=O)(=O)c1cc(C#N)ccc1C1NC(=O)N(c2cccc(C(F)(F)F)c2)C2=C1C(=O)CCC2 (stereo not shown) [Example 4.2] | 11 | 
CNC(=O)N1C(=O)N(c2cccc(C(F)(F)F)c2)C2=C(C(=O)CCC2)C1c1ccc(C#N)cc1[S+](C)[O-] (single isomer, unassigned) [Example 3.2, 4-(4-Cyano-2-methanesulfinyl-phenyl)-2,5-dioxo-1-(3-trifluoromethyl-phenyl)-1,4,5,6,7,8-hexahydro-2H-quinazoline-3-carboxylic acid methylamide] | < 1 | 
CN1C(=O)N(c2cccc(C(F)(F)F)c2)C2=C(C(=O)CCC2)C1c1ccc(C#N)cc1[S+](C)[O-] (single isomer, unassigned) [Example 2.1, 3-Methanesulfinyl-4-[3-methyl-2,5-dioxo-1-(3-trifluoromethyl-phenyl)-1,2,3,4,5,6,7,8-octahydro-quinazolin-4-yl]-benzonitrile] | < 1 | 
CN1C(=O)N(c2cccc(C(F)(F)F)c2)C2=C(C(=O)CCC2)C1c1ccc(C#N)cc1CO (stereo not shown) [Example 7, 3-Hydroxymethyl-4-[3-methyl-2,5-dioxo-1-(3-trifluoromethyl-phenyl)-1,2,3,4,5,6,7,8-octahydro-quinazolin-4-yl]-benzonitrile] | 1 | 

Further lines, with some results ahead:

IC50 [1] [nM] | Structure (SMILES) | other results
< 1 | CNC(=O)N1C(=O)N(c2cccc(C(F)(F)F)c2)C2=C(C(=O)CCC2)C1c1ccc(C#N)cc1[S+](C)[O-] (single isomer, unassigned) [Example 3.1, 4-(4-Cyano-2-methanesulfinyl-phenyl)-2,5-dioxo-1-(3-trifluoromethyl-phenyl)-1,4,5,6,7,8-hexahydro-2H-quinazoline-3-carboxylic acid methylamide] | 
7 | N#Cc1ccc(C2NC(=O)N(c3cccc(C(F)(F)F)c3)C3=C2C(=O)CCC3)c(S(=O)(=O)CCO)c1 (stereo not shown) [Example 4, 4-[2,5-Dioxo-1-(3-trifluoromethyl-phenyl)-1,2,3,4,5,6,7,8-octahydro-quinazolin-4-yl]-3-(3-hydroxy-ethane-1-sulfonyl)-benzonitrile] | 
1 | CS(=O)(=O)c1cc(C#N)ccc1C1C2=C(CCCC2=O)N(c2cccc(C(F)(F)F)c2)C(=O)N1CC1COC1 (single isomer, unassigned) [Example 5A, 3-Methanesulfonyl-4-[3-oxetan-3-ylmethyl-2,5-dioxo-1-(3-trifluoromethyl-phenyl)-1,2,3,4,5,6,7,8-octahydro-quinazolin-4-yl]-benzonitrile] | EC50 [2]: 1 nM; half-life at 1 μM [3]: 1.23 h; Papp A→B at 10 µM [4]: 12 ×10⁻⁶ cm/s; Papp B→A at 10 µM [4]: 89 ×10⁻⁶ cm/s
2 | C[S+]([O-])c1cc(C#N)ccc1C1NC(=O)N(c2cccc(C(F)(F)F)c2)C2=C1C(=O)CCC2 (single isomer, unassigned) [Example 1.1, 4-[2,5-Dioxo-1-(3-trifluoromethyl-phenyl)-1,2,3,4,5,6,7,8-octahydro-quinazolin-4-yl]-3-methanesulfinyl-benzonitrile] | 
1.2 | CN1C(=O)N(c2cccc(C(F)(F)F)c2)C2=C(C(=O)CCC2)C1c1ccc(C#N)cc1[S+](C)[O-] (single isomer, unassigned) [Example 2.2, 3-Methanesulfinyl-4-[3-methyl-2,5-dioxo-1-(3-trifluoromethyl-phenyl)-1,2,3,4,5,6,7,8-octahydro-quinazolin-4-yl]-benzonitrile] | 
157 | CS(=O)(=O)c1cc(C#N)ccc1C1C2=C(CCCC2=O)N(c2cccc(C(F)(F)F)c2)C(=O)N1CC1COC1 (single isomer, unassigned) [Example 5B, 3-Methanesulfonyl-4-[3-oxetan-3-ylmethyl-2,5-dioxo-1-(3-trifluoromethyl-phenyl)-1,2,3,4,5,6,7,8-octahydro-quinazolin-4-yl]-benzonitrile] | 
7.4 | C[S+]([O-])c1cc(C#N)ccc1C1NC(=O)N(c2cccc(C(F)(F)F)c2)C2=C1C(=O)CCC2 (single isomer, unassigned) [Example 1.1B, 4-[2,5-Dioxo-1-(3-trifluoromethyl-phenyl)-1,2,3,4,5,6,7,8-octahydro-quinazolin-4-yl]-3-methanesulfinyl-benzonitrile] | 
< 1 | CN1C(=O)N(c2cccc(C(F)(F)F)c2)C2=C(C(=O)CCC2)C1c1ccc(C#N)cc1S(=O)(=O)CCCO (stereo not shown) [Example 4.4] | EC50 [2]: 2 nM; half-life at 1 μM [3]: 1.67 h; Papp A→B at 10 µM [4]: 8.4 ×10⁻⁶ cm/s; Papp B→A at 10 µM [4]: 110 ×10⁻⁶ cm/s
4.2 | C[S+]([O-])c1cc(C#N)ccc1C1NC(=O)N(c2cccc(C(F)(F)F)c2)C2=C1C(=O)CCC2 (single isomer, unassigned) [Example 1.2, 4-[2,5-Dioxo-1-(3-trifluoromethyl-phenyl)-1,2,3,4,5,6,7,8-octahydro-quinazolin-4-yl]-3-methanesulfinyl-benzonitrile] | 
5.6 | N#Cc1ccc(C2NC(=O)N(c3cccc(C(F)(F)F)c3)C3=C2C(=O)CCC3)c(S(=O)(=O)CCCO)c1 (stereo not shown) [Example 4.1] | 
